Source: publication PMC7180948, “New Insights into 4-Anilinoquinazolines as Inhibitors of Cardiac Troponin I–Interacting Kinase (TNNi3K)” (Molecules, 2020)
Values belong to the molecule of their own block, whether it stands above or below them.

Key:
PDFRB = target: T1, PDFRB (Homo sapiens, UniProt P09619); assay: KINOMEscan at […], single concentration; type: binding
T1 construct: gene PDGFRB

STK36 = STK36 (Homo sapiens, UniProt Q9NRP7); assay: KINOMEscan at […], single concentration; type: binding
GAK = GAK (Homo sapiens, UniProt O14976); assay: KINOMEscan at […], single concentration; type: binding
ADCK4 = target: T2, ADCK4 (Homo sapiens, UniProt Q96D53); assay: biochemical; parameters: KINOMEscan competition binding panel (Eurofins DiscoverX), single concentration, percent inhibition; conditions: read-out: 15 at 1 µM % inhibition
T2 construct: gene COQ8B
In short: (§1)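 A single 1 µM concentration of each compound is screened across upwards of 400 human kinases using the KINOMEscan format.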

AMPK-alpha2 = target: T3, AMPK-alpha2 (Homo sapiens, UniProt P54646); assay: biochemical; parameters: KINOMEscan competition binding panel (Eurofins DiscoverX), single concentration, percent inhibition; conditions: read-out: 15 at 1 µM % inhibition
T3 construct: gene PRKAA2
In short: as §1

CAMK1G = CAMK1G (Homo sapiens, UniProt Q96NX5); assay: biochemical; parameters: KINOMEscan competition binding panel (Eurofins DiscoverX), single concentration, percent inhibition; conditions: read-out: 15 at 1 µM % inhibition
In short: as §1

EGFR(T790M) = EGFR(T790M) (Homo sapiens, UniProt P00533, T790M); assay: biochemical; parameters: KINOMEscan competition binding panel (Eurofins DiscoverX), single concentration, percent inhibition; conditions: read-out: 15 at 1 µM % inhibition
In short: as §1

GRK4 = GRK4 (Homo sapiens, UniProt P32298); assay: biochemical; parameters: KINOMEscan competition binding panel (Eurofins DiscoverX), single concentration, percent inhibition; conditions: read-out: 15 at 1 µM % inhibition
In short: as §1

HCK = HCK (Homo sapiens, UniProt P08631); assay: biochemical; parameters: KINOMEscan competition binding panel (Eurofins DiscoverX), single concentration, percent inhibition; conditions: read-out: 15 at 1 µM % inhibition
In short: as §1

HUNK = HUNK (Homo sapiens, UniProt P57058); assay: biochemical; parameters: KINOMEscan competition binding panel (Eurofins DiscoverX), single concentration, percent inhibition; conditions: read-out: 15 at 1 µM % inhibition
In short: as §1

IGF1R = IGF1R (Homo sapiens, UniProt P08069); assay: biochemical; parameters: KINOMEscan competition binding panel (Eurofins DiscoverX), single concentration, percent inhibition; conditions: read-out: 15 at 1 µM % inhibition
In short: as §1

LOK = target: T4, LOK (Homo sapiens, UniProt O94804); assay: biochemical; parameters: KINOMEscan competition binding panel (Eurofins DiscoverX), single concentration, percent inhibition; conditions: read-out: 15 at 1 µM % inhibition
T4 construct: gene STK10
In short: as §1

MAP4K3 = MAP4K3 (Homo sapiens, UniProt Q8IVH8); assay: biochemical; parameters: KINOMEscan competition binding panel (Eurofins DiscoverX), single concentration, percent inhibition; conditions: read-out: 15 at 1 µM % inhibition
In short: as §1

PIK3CA(H1047Y) = PIK3CA(H1047Y) (Homo sapiens, UniProt P42336, H1047Y); assay: biochemical; parameters: KINOMEscan competition binding panel (Eurofins DiscoverX), single concentration, percent inhibition; conditions: read-out: 15 at 1 µM % inhibition
In short: as §1

PKN2 = PKN2 (Homo sapiens, UniProt Q16513); assay: biochemical; parameters: KINOMEscan competition binding panel (Eurofins DiscoverX), single concentration, percent inhibition; conditions: read-out: 15 at 1 µM % inhibition
In short: as §1

PLK2 = PLK2 (Homo sapiens, UniProt Q9NYY3); assay: biochemical; parameters: KINOMEscan competition binding panel (Eurofins DiscoverX), single concentration, percent inhibition; conditions: read-out: 15 at 1 µM % inhibition
In short: as §1

PRKD3 = PRKD3 (Homo sapiens, UniProt O94806); assay: biochemical; parameters: KINOMEscan competition binding panel (Eurofins DiscoverX), single concentration, percent inhibition; conditions: read-out: 15 at 1 µM % inhibition
In short: as §1

[1] = target: T5, RSK4(Kin.Dom.1-N-terminal) (Homo sapiens, UniProt Q9UK32); assay: biochemical; parameters: KINOMEscan competition binding panel (Eurofins DiscoverX), single concentration, percent inhibition; conditions: read-out: 15 at 1 µM % inhibition
T5 construct: gene RPS6KA6; Kin.Dom.1-N-terminal
In short: as §1

SRPK3 = SRPK3 (Homo sapiens, UniProt Q9UPE1); assay: biochemical; parameters: KINOMEscan competition binding panel (Eurofins DiscoverX), single concentration, percent inhibition; conditions: read-out: 15 at 1 µM % inhibition
In short: as §1

SYK = SYK (Homo sapiens, UniProt P43405); assay: biochemical; parameters: KINOMEscan competition binding panel (Eurofins DiscoverX), single concentration, percent inhibition; conditions: read-out: 15 at 1 µM % inhibition
In short: as §1

SgK110 = target: T6, SgK110 (Homo sapiens, UniProt P0C264); assay: biochemical; parameters: KINOMEscan competition binding panel (Eurofins DiscoverX), single concentration, percent inhibition; conditions: read-out: 15 at 1 µM % inhibition
T6 construct: gene SBK3
In short: as §1

p38-beta = target: T7, p38-beta (Homo sapiens, UniProt Q15759); assay: biochemical; parameters: KINOMEscan competition binding panel (Eurofins DiscoverX), single concentration, percent inhibition; conditions: read-out: 15 at 1 µM % inhibition
T7 construct: gene MAPK11
In short: as §1

PIK3CA(H1047Y), sequence (P42336 whole entry H1047Y): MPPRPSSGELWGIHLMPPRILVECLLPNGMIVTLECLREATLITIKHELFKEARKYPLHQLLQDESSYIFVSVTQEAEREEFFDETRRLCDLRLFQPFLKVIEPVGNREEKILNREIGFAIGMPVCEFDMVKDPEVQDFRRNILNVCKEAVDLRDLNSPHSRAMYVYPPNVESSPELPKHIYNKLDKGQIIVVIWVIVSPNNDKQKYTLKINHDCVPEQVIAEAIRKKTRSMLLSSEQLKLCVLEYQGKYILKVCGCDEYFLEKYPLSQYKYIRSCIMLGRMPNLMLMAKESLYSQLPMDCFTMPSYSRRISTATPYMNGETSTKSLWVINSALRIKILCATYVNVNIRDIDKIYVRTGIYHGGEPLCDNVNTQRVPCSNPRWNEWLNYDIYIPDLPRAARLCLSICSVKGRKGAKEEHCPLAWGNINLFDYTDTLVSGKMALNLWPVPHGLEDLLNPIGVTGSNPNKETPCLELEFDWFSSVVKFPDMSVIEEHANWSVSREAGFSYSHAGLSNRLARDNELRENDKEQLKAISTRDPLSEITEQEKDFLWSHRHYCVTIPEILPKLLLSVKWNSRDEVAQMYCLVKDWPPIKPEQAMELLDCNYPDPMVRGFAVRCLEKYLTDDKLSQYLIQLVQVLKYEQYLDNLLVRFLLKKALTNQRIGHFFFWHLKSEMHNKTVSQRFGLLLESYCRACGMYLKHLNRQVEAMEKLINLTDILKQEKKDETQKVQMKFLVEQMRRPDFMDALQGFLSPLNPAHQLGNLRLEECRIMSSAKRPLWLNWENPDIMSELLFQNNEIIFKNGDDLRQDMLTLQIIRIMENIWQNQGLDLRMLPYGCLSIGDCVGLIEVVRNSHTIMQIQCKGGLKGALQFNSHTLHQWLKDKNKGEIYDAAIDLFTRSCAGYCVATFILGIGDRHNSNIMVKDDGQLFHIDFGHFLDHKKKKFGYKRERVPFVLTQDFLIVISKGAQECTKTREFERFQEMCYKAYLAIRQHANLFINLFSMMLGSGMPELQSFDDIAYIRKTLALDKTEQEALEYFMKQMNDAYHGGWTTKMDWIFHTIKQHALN
T4 sequence (O94804 whole entry): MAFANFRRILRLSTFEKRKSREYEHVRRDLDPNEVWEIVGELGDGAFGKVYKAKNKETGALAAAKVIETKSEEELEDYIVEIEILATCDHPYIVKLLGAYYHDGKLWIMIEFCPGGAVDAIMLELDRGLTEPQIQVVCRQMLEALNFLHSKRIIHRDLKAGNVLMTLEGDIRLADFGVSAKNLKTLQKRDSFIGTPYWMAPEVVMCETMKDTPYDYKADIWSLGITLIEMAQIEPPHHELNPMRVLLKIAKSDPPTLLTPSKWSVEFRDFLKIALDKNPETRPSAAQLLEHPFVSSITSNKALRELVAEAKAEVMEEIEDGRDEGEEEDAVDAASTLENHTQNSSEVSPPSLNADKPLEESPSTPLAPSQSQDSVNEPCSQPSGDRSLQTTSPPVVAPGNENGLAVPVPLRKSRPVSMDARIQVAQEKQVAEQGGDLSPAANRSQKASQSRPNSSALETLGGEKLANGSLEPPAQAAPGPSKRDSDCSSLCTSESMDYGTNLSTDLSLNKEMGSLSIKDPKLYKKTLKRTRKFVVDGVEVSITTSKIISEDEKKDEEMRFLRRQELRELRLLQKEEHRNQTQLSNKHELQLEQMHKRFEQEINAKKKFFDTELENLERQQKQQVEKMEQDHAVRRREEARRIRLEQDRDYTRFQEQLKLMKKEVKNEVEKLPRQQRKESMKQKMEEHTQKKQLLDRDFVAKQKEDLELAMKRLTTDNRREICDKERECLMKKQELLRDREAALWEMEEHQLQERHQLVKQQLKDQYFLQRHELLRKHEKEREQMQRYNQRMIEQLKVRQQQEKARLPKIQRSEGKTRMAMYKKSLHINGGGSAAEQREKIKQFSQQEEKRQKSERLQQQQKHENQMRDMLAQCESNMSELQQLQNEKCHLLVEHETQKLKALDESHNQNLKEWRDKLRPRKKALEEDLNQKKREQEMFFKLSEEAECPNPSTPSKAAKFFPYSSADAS
PKN2, sequence (Q16513 whole entry): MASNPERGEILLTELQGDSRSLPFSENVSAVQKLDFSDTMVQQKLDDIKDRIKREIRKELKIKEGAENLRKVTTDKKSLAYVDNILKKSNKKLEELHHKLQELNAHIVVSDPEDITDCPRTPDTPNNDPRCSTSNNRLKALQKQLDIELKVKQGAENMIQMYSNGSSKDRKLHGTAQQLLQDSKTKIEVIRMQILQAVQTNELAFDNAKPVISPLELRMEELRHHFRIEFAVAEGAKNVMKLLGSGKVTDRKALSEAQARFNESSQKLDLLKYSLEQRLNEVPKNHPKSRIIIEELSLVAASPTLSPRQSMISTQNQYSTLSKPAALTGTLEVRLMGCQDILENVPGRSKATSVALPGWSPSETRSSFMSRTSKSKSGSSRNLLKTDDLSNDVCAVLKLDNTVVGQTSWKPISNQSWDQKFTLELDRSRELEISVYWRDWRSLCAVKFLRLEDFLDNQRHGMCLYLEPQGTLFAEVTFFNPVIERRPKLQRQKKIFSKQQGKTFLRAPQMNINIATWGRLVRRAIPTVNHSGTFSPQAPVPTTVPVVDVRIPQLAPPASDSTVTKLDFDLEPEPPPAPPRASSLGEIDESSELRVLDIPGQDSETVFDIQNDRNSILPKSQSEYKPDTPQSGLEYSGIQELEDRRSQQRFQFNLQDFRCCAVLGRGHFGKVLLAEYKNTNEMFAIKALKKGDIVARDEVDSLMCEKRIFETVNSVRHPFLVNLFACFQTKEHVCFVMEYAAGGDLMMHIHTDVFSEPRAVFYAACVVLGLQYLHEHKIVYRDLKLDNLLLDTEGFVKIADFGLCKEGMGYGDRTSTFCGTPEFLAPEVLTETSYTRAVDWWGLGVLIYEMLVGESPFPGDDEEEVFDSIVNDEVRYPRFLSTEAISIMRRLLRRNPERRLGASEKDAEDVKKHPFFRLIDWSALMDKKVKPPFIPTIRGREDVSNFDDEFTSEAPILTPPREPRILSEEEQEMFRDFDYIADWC
T7 sequence (Q15759 whole entry): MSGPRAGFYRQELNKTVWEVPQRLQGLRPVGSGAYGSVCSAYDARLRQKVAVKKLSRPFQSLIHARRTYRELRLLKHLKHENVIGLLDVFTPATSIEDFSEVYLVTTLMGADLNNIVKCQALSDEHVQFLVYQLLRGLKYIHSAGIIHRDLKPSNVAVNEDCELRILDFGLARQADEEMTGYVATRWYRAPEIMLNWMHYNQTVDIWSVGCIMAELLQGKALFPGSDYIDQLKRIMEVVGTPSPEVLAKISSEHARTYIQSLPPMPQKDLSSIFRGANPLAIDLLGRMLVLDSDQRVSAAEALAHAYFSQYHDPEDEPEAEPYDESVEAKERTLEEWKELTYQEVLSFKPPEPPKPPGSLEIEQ
PRKD3, sequence (O94806 whole entry): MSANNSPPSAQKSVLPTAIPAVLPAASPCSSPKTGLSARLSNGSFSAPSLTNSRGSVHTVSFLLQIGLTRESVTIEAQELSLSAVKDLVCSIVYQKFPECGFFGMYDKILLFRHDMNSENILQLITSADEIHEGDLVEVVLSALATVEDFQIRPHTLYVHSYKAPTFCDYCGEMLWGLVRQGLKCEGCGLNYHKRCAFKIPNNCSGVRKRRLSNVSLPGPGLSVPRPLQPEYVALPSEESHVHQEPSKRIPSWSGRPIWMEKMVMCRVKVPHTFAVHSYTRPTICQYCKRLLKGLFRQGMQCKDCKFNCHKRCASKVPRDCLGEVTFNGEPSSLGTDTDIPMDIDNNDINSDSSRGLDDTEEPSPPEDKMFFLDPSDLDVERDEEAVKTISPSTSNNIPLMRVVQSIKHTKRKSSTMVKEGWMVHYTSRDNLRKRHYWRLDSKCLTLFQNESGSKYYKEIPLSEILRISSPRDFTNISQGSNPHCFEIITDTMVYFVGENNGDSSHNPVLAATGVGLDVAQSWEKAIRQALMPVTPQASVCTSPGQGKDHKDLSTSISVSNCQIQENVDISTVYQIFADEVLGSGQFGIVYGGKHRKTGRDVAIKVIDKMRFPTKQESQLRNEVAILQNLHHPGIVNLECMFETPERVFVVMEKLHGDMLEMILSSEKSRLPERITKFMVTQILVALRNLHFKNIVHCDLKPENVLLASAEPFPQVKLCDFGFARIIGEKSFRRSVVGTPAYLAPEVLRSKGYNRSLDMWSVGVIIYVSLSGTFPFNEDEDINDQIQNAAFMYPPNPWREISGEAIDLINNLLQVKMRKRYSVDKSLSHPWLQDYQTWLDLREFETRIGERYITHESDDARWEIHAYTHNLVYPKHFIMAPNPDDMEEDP
T6 sequence (P0C264 whole entry): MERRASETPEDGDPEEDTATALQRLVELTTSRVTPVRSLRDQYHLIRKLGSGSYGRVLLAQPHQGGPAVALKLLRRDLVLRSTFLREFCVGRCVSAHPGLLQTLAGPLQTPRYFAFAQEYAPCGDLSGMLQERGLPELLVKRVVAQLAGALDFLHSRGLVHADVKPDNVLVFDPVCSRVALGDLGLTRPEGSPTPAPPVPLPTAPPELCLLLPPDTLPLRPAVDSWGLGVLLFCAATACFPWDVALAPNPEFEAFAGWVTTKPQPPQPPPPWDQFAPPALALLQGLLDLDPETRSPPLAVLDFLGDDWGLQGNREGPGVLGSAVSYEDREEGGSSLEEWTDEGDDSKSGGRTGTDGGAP

SMILES: CNS(=O)(=O)c1ccc(N(C)C)c(Nc2ncnc3cc(OC)c(OC)cc23)c1 [compound 7, 3-((6,7-dimethoxyquinazolin-4-yl)amino)-4-(dimethylamino)-N-methylbenzenesulfonamide]
inhibition at 1 µM (PDFRB): 91% | inhibition at 1 µM (STK36): 94% | inhibition at 1 µM (GAK): 92%

inhibition at 1 µM (ADCK4): 0% | inhibition at 1 µM (AMPK-alpha2): 2% | inhibition at 1 µM (CAMK1G): 0% | inhibition at 1 µM (EGFR(T790M)): 25% | inhibition at 1 µM (GRK4): 8% | inhibition at 1 µM (HCK): 4% | inhibition at 1 µM (HUNK): 0% | inhibition at 1 µM (IGF1R): 0% | inhibition at 1 µM (LOK): 7% | inhibition at 1 µM (MAP4K3): 0% | inhibition at 1 µM (PIK3CA(H1047Y)): 21% | inhibition at 1 µM (PKN2): 0% | inhibition at 1 µM (PLK2): 23% | inhibition at 1 µM (PRKD3): 0% | inhibition at 1 µM [1]: 30% | inhibition at 1 µM (SRPK3): 1% | inhibition at 1 µM (SYK): 0% | inhibition at 1 µM (SgK110): 0% | inhibition at 1 µM (p38-beta): 0%
SMILES: CNS(=O)(=O)c1ccc(N(C)C)c(Nc2nc(C)nc3cc(OC)c(OC)cc23)c1 [compound 15, 3-((6,7-dimethoxy-2-methylquinazolin-4-yl)amino)-4-(dimethylamino)-N-methylbenzenesulfonamide]
